According to US20250275949A1, “USE OF DITERPENE COMPOUND DERIVATIVE OR SALT THEREOF IN PREPARATION OF MEDICINE FOR PREVENTING AND TREATING ATOPIC DERMATITIS” (SUZHOU PHARMAVAN CO., LTD, priority 2022, published 2025):

Assays:
Format in all cases: in vivo, BALB/c mice
OXA-induced AD model [1] = assay: OXA-induced AD mouse model, Example 1 (eight compounds in castor oil); conditions: 0.1% in castor oil, day 7 to day 23; for OXA-induced AD-like lesions (conclusion of Example 1): auricle
Source text: Experimental animals involved in the following embodiments were SPF-grade BALB/c mice (≥7 weeks old, female). The scoring criteria for skin lesions involved in the following embodiments are shown in Table 1 and the histopathological scoring criteria are shown in Table 2. [table] The day of grouping was defined as day 0. Mice were randomly divided into 11 groups: blank control (NC) group, model (OXA) group, blank castor oil (vehicle) group, Compound 1 administration group, Compound 2 administration group, Compound 3 administration group, Compound 4 administration group, Compound 5 administration group, Compound 6 administration group, Compound 7 administration group, and Compound 8 administration 10 group, with 5 animals in each group. Each group except NC group was treated for modeling AD. Day 0:0.8%-OXA solution was applied to the auricle of both ears at 20 μL per ear. Day 7, 10, 12, 14, 17, 19, 21, and 23:0.4%-OXA solution was applied to the auricle of both ears at 20 μL per ear. Each group except NC group and OXA group was administrated. The administration started from day 7 to day 23, and the mice was administrated once a day at the auricle of both ears by 50 μL per ear (100 μL per mouse). The condition of the animals was observed during the experimental period, and the auricle was scored for skin lesions (see Table 1 for skin lesion scoring criteria), and the thickness of the ears was measured. [table]

OXA-induced AD model [2] = assay: OXA-induced AD mouse model, Example 2 (Compound 1 cream; lesion score, ear thickness, immunohistochemistry, Western Blot); conditions: for right ear thickness on day 24 / skin lesion score on day 24: 50 μL per ear once a day, day 7 to day 23; for right ear thickness on day 24 / skin lesion score on day 24 / ICAM-1 positive rate, immunohistochemistry / Ki67 positive rate, immunohistochemistry / VCAM-1 positive rate, immunohistochemistry: vs vehicle group
Source text: Experimental animals involved in the following embodiments were SPF-grade BALB/c mice (≥7 weeks old, female). The scoring criteria for skin lesions involved in the following embodiments are shown in Table 1 and the histopathological scoring criteria are shown in Table 2. [table] The day of grouping was defined as day 0. Mice were randomly divided into 5 groups: blank control (NC) group, model (OXA) group, blank cream (vehicle) group, 0.1%-Compound 1 cream group, and 0.5%-Compound 1 cream group; the NC group had 5 animals, the other groups each had 10 animals. Each group except NC group was treated for modeling AD. Day 0:0.8%-OXA solution was applied to the auricle of both ears at 20 μL per ear. Day 7, 10, 12, 14, 17, 19, 21, and 23:0.4%-OXA solution was applied to the auricle of both ears at 20 μL per ear. Each group except NC group and OXA group was administrated. The administration started from day 7 to day 23, and the mice was administrated once a day at the auricle of both ears by 50 μL per ear (100 μL per mouse). The condition of the animals was observed during the experimental period, and the auricle was scored for skin lesions (see Table 1 for skin lesion scoring criteria), and the thickness of the ears was measured. The mice were euthanized, and their ear tissues were retained for immunohistochemistry and Western Blot analysis. [table]

MC903-induced AD model [3] = assay: MC903-induced AD mouse model, Example 3 (ear swelling, skin thickness, mast cells, histopathology, serum IgE ELISA)
Source text: Experimental animals involved in the following embodiments were SPF-grade BALB/c mice (≥7 weeks old, female). The scoring criteria for skin lesions involved in the following embodiments are shown in Table 1 and the histopathological scoring criteria are shown in Table 2. [table] This example explores the preventive and therapeutic effect of a small-molecule diterpene derivative on the MC903-induced AD model, including the following: • The day of grouping was defined as day 0. Mice were randomly divided into 5 groups: blank control (NC) group, model (MC903) group, blank cream (vehicle) group, 0.1%-Compound 1 cream group, and 0.5%-Compound 1 cream group; each group had 10 animals. Each group except NC group was treated for modeling AD. From day 0 to day 10:0.1 nmol/μL-MC903 solution was applied to the auricle of right ear at 20 μL once a day. Each group except NC group and MC903 group was administrated. The administration started from day 3 to day 10, and the mice was administrated once a day at the auricle of right ear by 50 μL. The condition of the animals was observed during the experimental period. The mice were euthanized, and their ear tissues were retained for the degree of ear swelling measurement, skin thickness measurement, mast cell counting and immunohistochemical analysis, and their blood tissues were retained for ELISA. [table]

MC903-induced AD model [4] = assay: MC903-induced AD mouse model, itching symptoms (scratching times), Example 4; conditions: cream 0.1% and 0.5%, right auricle, day 3 to day 10; video on the day before the experiment ended
Source text: Experimental animals involved in the following embodiments were SPF-grade BALB/c mice (≥7 weeks old, female). This example explores the preventive and therapeutic effect of a small-molecule diterpene derivative to itching symptoms on the MC903-induced AD model, including the following: • The day of grouping was defined as day 0. Mice were randomly divided into 5 groups: blank control (NC) group, model (MC903) group, blank cream (vehicle) group, 0.1%-Compound 1 cream group, and 0.5%-Compound 1 cream group; each group had 10 animals. Each group except NC group was treated for modeling AD. From day 0 to day 10:0.1 nmol/μL-MC903solution was applied to the auricle of right ear at 20 μL once a day. Each group except NC group and MC903 group was administrated. The administration started from day 3 to day 10, and the mice was administrated once a day at the auricle of right ear by 50 μL. The administration method for modeling and the design of subject dosage are same as Example 3. On the day before the experiment ended, the mice were videoed, and the mice of AD model were evaluated through the video about their scratching times in 15 min.

[5] = 50 μL per ear on auricle once a day, compared with vehicle group
[6] = cream, 0.1% and 0.5% groups together
[7] = cream, 0.1% and 0.5%, ear tissue
[8] = cream 0.1% and 0.5%, right auricle, day 3 to day 10

C=C1C(=O)[C@@]23[C@H](O)C[C@@H]4C(C)(C)c5nc(N(CC)CC)sc5C[C@@]4(C)[C@@H]2CC[C@@H]1[C@H]3O [Compound 5]
skin lesion score on day 24 (OXA-induced AD model [1]; [5]): effectively reduce the skin lesion score | OXA-induced AD-like lesions (conclusion of Example 1) (OXA-induced AD model [1]): significantly ameliorate the OXA-induced AD-like lesions

C=C1C(=O)[C@@]23[C@H](O)C[C@@H]4C(C)(C)c5nc(N(CCC)CCC)sc5C[C@@]4(C)[C@@H]2CC[C@@H]1[C@H]3O [Compound 6]
skin lesion score on day 24 (OXA-induced AD model [1]; [5]): effectively reduce the skin lesion score | OXA-induced AD-like lesions (conclusion of Example 1) (OXA-induced AD model [1]): significantly ameliorate the OXA-induced AD-like lesions

C=C1C(=O)[C@@]23[C@H](O)C[C@@H]4C(C)(C)c5nc(Nc6ccncc6)sc5C[C@@]4(C)[C@@H]2CC[C@@H]1[C@H]3O [Compound 8]
right ear thickness on day 24 (OXA-induced AD model [1]; [5]): Vehicle group>Compound 8 group | skin lesion score on day 24 (OXA-induced AD model [1]; [5]): do not exert a significant anti-atopic dermatitis effect

C=C1C(=O)[C@@]23[C@H](O)C[C@@H]4C(C)(C)c5nc(N(C)C)sc5C[C@@]4(C)[C@@H]2CC[C@@H]1[C@H]3O [Compound 1]
skin lesion score on day 24 (OXA-induced AD model [1]; [5]): effectively reduce the skin lesion score | OXA-induced AD-like lesions (conclusion of Example 1) (OXA-induced AD model [1]): significantly ameliorate the OXA-induced AD-like lesions | right ear thickness on day 24 (OXA-induced AD model [2]; 0.1% cream): statistically different from the vehicle group | skin lesion score on day 24 (OXA-induced AD model [2]; 0.1% cream): statistically different from the vehicle group | ICAM-1 positive rate, immunohistochemistry (OXA-induced AD model [2]; 0.1% cream, ear tissue): reduced | Ki67 positive rate, immunohistochemistry (OXA-induced AD model [2]; 0.1% cream, ear tissue): reduced (statistically different) | VCAM-1 positive rate, immunohistochemistry (OXA-induced AD model [2]; 0.1% cream, ear tissue): reduced | right ear thickness on day 24 (OXA-induced AD model [2]; 0.5% cream): statistically different from the vehicle group | skin lesion score on day 24 (OXA-induced AD model [2]; 0.5% cream): statistically different from the vehicle group | ICAM-1 positive rate, immunohistochemistry (OXA-induced AD model [2]; 0.5% cream, ear tissue): reduced | Ki67 positive rate, immunohistochemistry (OXA-induced AD model [2]; 0.5% cream, ear tissue): reduced (statistically different) | VCAM-1 positive rate, immunohistochemistry (OXA-induced AD model [2]; 0.5% cream, ear tissue): reduced | OXA-induced AD-like lesions (conclusion of Example 2) (OXA-induced AD model [2]; cream, 0.1% and 0.5%): significantly ameliorate the OXA-induced AD-like lesions | ear thickness (conclusion) (OXA-induced AD model [2]; [6]): effectively ameliorate the ear thickness | epidermal overproliferation (Ki67) and aberrant expression of adhesion factor (ICAM-1, VCAM-1), conclusion (OXA-induced AD model [2]; [6]): effectively inhibit the epidermal overproliferation and aberrant expression of adhesion factor | skin lesion score (conclusion) (OXA-induced AD model [2]; [6]): effectively reduce the skin lesion score | ICAM-1 protein expression (gray value), Western Blot (OXA-induced AD model [2]; [7]): consistent with the immunohistochemical results | VCAM-1 protein expression (gray value), Western Blot (OXA-induced AD model [2]; [7]): consistent with the immunohistochemical results | degree of ear swelling (MC903-induced AD model [3]; cream 0.1% and 0.5%, 50 μL on right auricle once a day, day 3 to day 10): effectively ameliorate the ear swelling | dermal thickness (ear histological scanning) (MC903-induced AD model [3]; [8]): effectively ameliorate the thickening of epidermis and dermis | epidermal thickness (ear histological scanning) (MC903-induced AD model [3]; [8]): effectively ameliorate the thickening of epidermis and dermis | histopathology scores (total, parakeratosis, epidermal defect, dermal papilla thickening, capillary proliferation, inflammatory infiltration), HE staining (MC903-induced AD model [3]; [8]): effectively ameliorates the extent of MC903-induced AD-like lesions | mast cell counting (toluidine blue staining of ear tissue sections) (MC903-induced AD model [3]; [8]): significantly reduces the number of mast cells | serum IgE concentration (ELISA) (MC903-induced AD model [3]; [8]): inhibits the serum IgE concentration | MC903-induced AD-like lesions (conclusion of Example 3) (MC903-induced AD model [3]; cream, 0.1% and 0.5%): significantly ameliorate the MC903-induced AD-like lesions | scratching times in 15 min (extent of itching) (MC903-induced AD model [4]): effectively ameliorates the extent of itching

C=C1C(=O)[C@@]23[C@H](O)C[C@@H]4C(C)(C)c5nc(N)sc5C[C@@]4(C)[C@@H]2CC[C@@H]1[C@H]3O [Compound 2]
skin lesion score on day 24 (OXA-induced AD model [1]; [5]): do not exert a significant anti-atopic dermatitis effect

C=C1C(=O)[C@@]23[C@H](O)C[C@@H]4C(C)(C)c5nc(NC)sc5C[C@@]4(C)[C@@H]2CC[C@@H]1[C@H]3O [Compound 3]
skin lesion score on day 24 (OXA-induced AD model [1]; [5]): do not exert a significant anti-atopic dermatitis effect

C=C1C(=O)[C@@]23[C@H](O)C[C@@H]4C(C)(C)c5nc(NCC)sc5C[C@@]4(C)[C@@H]2CC[C@@H]1[C@H]3O [Compound 4]
skin lesion score on day 24 (OXA-induced AD model [1]; [5]): do not exert a significant anti-atopic dermatitis effect

C=C1C(=O)[C@@]23[C@H](O)C[C@@H]4C(C)(C)c5nc(N(C(C)C)C(C)C)sc5C[C@@]4(C)[C@@H]2CC[C@@H]1[C@H]3O [Compound 7]
skin lesion score on day 24 (OXA-induced AD model [1]; [5]): effectively reduce the skin lesion score | OXA-induced AD-like lesions (conclusion of Example 1) (OXA-induced AD model [1]): significantly ameliorate the OXA-induced AD-like lesions
